Values quoted from earlier work, collected in patent publication US20080213414A1, “Compositions containing phaseolus vulgaris extract and alpinia officinarum extract for the prevention and treatment of obesity and type II diabetes” (priority 2005, published 2008).

How the values were obtained:
[1] = biological target: T1, pancreatic lipase (Homo sapiens, UniProt P16233)
T1 sequence (P16233 17-465): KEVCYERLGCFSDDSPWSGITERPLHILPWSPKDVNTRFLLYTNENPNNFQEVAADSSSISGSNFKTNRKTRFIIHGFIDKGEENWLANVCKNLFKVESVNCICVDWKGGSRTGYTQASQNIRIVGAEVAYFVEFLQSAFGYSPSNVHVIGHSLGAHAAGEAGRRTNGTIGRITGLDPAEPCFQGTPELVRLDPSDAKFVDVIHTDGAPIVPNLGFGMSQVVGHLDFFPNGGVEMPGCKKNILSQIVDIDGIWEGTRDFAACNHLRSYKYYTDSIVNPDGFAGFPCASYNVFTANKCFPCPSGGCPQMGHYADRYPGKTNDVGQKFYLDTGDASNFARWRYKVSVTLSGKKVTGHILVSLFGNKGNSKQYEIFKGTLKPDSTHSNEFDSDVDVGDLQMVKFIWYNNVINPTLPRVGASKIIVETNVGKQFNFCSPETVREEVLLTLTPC

[2] = without gastroprotection

## COc1c(-c2ccccc2)oc2cc(O)cc(O)c2c1=O [3-methylethergalangin]
[1]
  IC50, inhibition of pancreatic lipase: around 1 mg/ml
[2]
  stability to the gastric juices: not broken down by the gastric juices
